Marks after values point to notes of the source that are not given here.
Key:
[1] = system: hepatocyte growth factor (HGF); assay: RT-PCR expression of hair-related gene HGF in dermal papilla cells; type: cell-based; conditions: 1 μg/mL minoxidil, 18 hours
Protocol: (§1) RT-PCR (reverse transcription polymerase chain reaction) was conducted in order to investigate the effect on the expression of hair-related genes, insulin-like growth factor 1 (IGF-1), hepatocyte growth factor (HGF) and keratinocyte growth factor (KGF). Dermal papilla cells were seeded onto a 100-mm cell culture dish at a density of 80% and then cultured for 24 hours at 37° C. in a 5% CO2 incubator. DMEM (Dulbecco's modified Eagle's medium, BRL, USA) containing 10% bovine serum was used as a medium. After adding 100 μg/mL of a sample (Examples 1-1, 1-2, 1-3 and 1-4; Comparative Examples 1-1, 1-2 and 1-3; Examples 2-1, 2-2 and 2-3) or 1 μg/mL minoxidil as a positive control group, the cells were cultured for 18 hours and RNA was isolated by adding 1 mL of Trizol (Invitrogen, USA) according to the Promega's method. After quantifying RNA at 260 nm using a UV detector, RT-PCR was conducted. The RT-PCR was conducted using a RT-PCR kit (All-in-one RT-PCR kit, SuperBio, Korea) under the condition of 40 cycles of reverse transcription at 50° C. for 30 minutes followed by inactivation of reverse transcriptase at 96° C. for 3 minutes, 94° C. for 30 seconds, 58° C. for 30 seconds and 72° C. for 1 minute. The result was represented as percentage (%) of expression relative to the negative control group (Table 3).

[2] = system: insulin-like growth factor 1 (IGF-1); assay: RT-PCR expression of hair-related gene IGF-1 in dermal papilla cells; type: cell-based; conditions: 1 μg/mL minoxidil, 18 hours
Protocol: as §1

[3] = system: keratinocyte growth factor (KGF); assay: RT-PCR expression of hair-related gene KGF in dermal papilla cells; type: cell-based; conditions: 1 μg/mL minoxidil, 18 hours
Protocol: as §1

[4] = system: C57BL/6 mice depilated on the back; assay: Animal experiment for hair growth-promoting effect in depilated mice; type: in vivo, mouse; conditions: 5 wt % minoxidil, 0.2 mL topical once a day
Protocol: The hair growth-promoting effect of the composition of the present disclosure was investigated using C57BL/6 mice. 49- to 51-day-old C57BL/6N mice, in the second […], were depilated completely on the back using wax. While applying 0.2 mL of Example 2-1 or 2-3 at a solid content of 1 wt % or 20 wt %, or 5 wt % minoxidil as a positive control group, diluted in water, once a day for 16 days, hair-growing effect was monitored. Distilled water was used as a negative control group. The hair growth index with time was evaluated by the 3-point scale (see Table 4).

Nc1cc(N2CCCCC2)nc(N)[n+]1[O-] [Minoxidil, minoxidil]
HGF expression relative to the negative control group [1]: 134.6%** | IGF-1 expression relative to the negative control group [2]: 119.0%** | KGF expression relative to the negative control group [3]: 120.2%** | Hair growth index (3-point scale) ([4]; Day 0): 0 points | Hair growth index (3-point scale) ([4]; Day 12): 1.22 ± 0.26 points | Hair growth index (3-point scale) ([4]; Day 16): 2.66 ± 0.23 points

Reference: patent publication US11896706B2, “Composition for preventing hair loss or promoting hair growth, comprising, as active ingredient, mixed extract of cucumber, eggplant and snail extracts as active ingredient” (OGADAL INC., priority 2020, dated 2024)
